Data published in US10344025B2, “GLS1 inhibitors for treating disease” (Board of Regents, The University of Texas System, priority 2014, dated 2019).

Assays:
[1] = molecular target: purified recombinant human GAC (GLS1) (Homo sapiens (Human), UniProt O94925); test: GLS1 Enzymatic Activity Assay (dual-coupled enzymatic assay, resorufin/Amplex UltraRed readout); type: biochemical;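 further: glutamate from GAC coupled via glutamate oxidase and peroxidase to resorufin, read as fluorescence (ex 530, em 590 nm) kinetically or at 20 min, four-parameter logistic IC50 fit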
A549 cells = test: Proliferation Assay (A549 viability, Cell Titer Fluor, 72 hours); type: cell-based; conditions: Homo sapiens, A549, 72 h
Procedure, shortened: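 Cell Titer Fluor fluorescence after 72 h compound treatment (0.5% DMSO, 37 °C, 5% CO2) of A549 cells plated 24 h earlier at 1000/well. Four-parameter logistic fitting gave IC50.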

purified recombinant human GAC (GLS1), sequence (O94925 other isoform, or with tags, fused parts or gaps): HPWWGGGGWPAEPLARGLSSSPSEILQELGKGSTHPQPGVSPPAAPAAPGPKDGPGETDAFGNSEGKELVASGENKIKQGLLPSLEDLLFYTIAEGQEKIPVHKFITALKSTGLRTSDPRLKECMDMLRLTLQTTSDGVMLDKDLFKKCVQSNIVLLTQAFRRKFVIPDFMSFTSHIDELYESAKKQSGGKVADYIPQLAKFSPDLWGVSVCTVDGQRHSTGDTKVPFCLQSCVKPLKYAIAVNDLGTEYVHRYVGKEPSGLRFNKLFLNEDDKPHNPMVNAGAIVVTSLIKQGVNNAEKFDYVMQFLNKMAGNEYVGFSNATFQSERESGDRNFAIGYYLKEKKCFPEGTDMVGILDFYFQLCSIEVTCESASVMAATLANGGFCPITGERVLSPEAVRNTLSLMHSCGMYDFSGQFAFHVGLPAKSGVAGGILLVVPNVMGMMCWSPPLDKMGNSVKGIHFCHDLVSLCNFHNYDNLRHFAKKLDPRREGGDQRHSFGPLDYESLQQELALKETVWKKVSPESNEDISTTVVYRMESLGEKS

Compound | IC50 [1] [µM] | EC50 (A549 cells) [µM]
Cc1ccc(CC(=O)Nc2cn(CC(F)CCn3cc(C(=O)NCc4ncccc4F)nn3)nn2)cn1 (stereo not drawn) [Example 345, 1-(3-fluoro-4-{4-[2-(6-methylpyridin-3-yl)acetamido]-1H-1,2,3-triazol-1-yl}butyl)-N-[(3-fluoropyridin-2-yl)methyl]-1H-1,2,3-triazole-4-carboxamide] | 0.1 to 0.5 | > 5
CNC(=O)c1cn(CC(F)CCc2nnc(NC(=O)Cc3cc(C4CCOCC4)ccn3)s2)nn1 (stereo not drawn) [Example 265, 1-(2-fluoro-4-(5-(2-(4-(tetrahydro-2H-pyran-4-yl)pyridin-2-yl)acetamido)-1,3,4-thiadiazol-2-yl)butyl)-N-methyl-1H-1,2,3-triazole-4-carboxamide] | < 0.1 | < 0.1
CNC(=O)c1cn(CCCCc2ccc(NC(=O)Cc3cccc(S(C)(=O)=O)c3)nn2)nn1 [Example 543, 1-(4-{6-[2-(3-methanesulfonylphenyl)acetamido]pyridazin-3-yl}butyl)-N-methyl-1H-1,2,3-triazole-4-carboxamide] | < 0.1 | 0.5 to 5
CNC(=O)c1cn(CCCCc2ccc(NC(=O)[C@@H](C)c3ccccc3)nn2)nn1 [Example 179, N-methyl-1-(4-{6-[(2S)-2-phenylpropanamido]pyridazin-3-yl}butyl)-1H-1,2,3-triazole-4-carboxamide] | < 0.1 | 0.5 to 5
CNC(=O)c1cn(CC(F)CCc2nnc(C(=O)NCc3ccccc3)s2)nn1 (stereo not drawn) [Example 563, N-benzyl-5-{3-fluoro-4-[4-(methylcarbamoyl)-1H-1,2,3-triazol-1-yl]butyl}-1,3,4-thiadiazole-2-carboxamide] | 0.5 to 5 | 0.5 to 5
CC(=O)Nc1nnc(CCC(F)Cn2cc(C(=O)NCc3cccc(OC(F)(F)F)c3)nn2)s1 (stereo not drawn) [Example 566, 1-(4-(5-acetamido-1,3,4-thiadiazo1-2-yl)-2-fluorobutyl)-N-(3-(trifluoromethoxy)benzyl)-1H-1,2,3-triazole-4-carboxamide] | < 0.1 | 0.1 to 0.5
CNC(=O)c1cn(CCC(F)Cn2cc(C(=O)NCc3ccc(C(F)(F)F)cn3)nn2)nn1 (stereo not drawn) [Example 184, 1-{3-fluoro-4-[4-({[5-(trifluoromethyl)pyridin-2-yl]methyl}carbamoyl)-1H-1,2,3-triazol-1-yl]butyl}-N-methyl-1H-1,2,3-triazole-4-carboxamide] | 0.5 to 5 | > 5
O=C(CC1CC1)Nc1cn(CCCCn2cc(C(=O)NCc3cccc(OC(F)(F)F)c3)nn2)nn1 [Example 276, 1-{4-[4-(2-cyclopropylacetamido)-1H-1,2,3-triazol-1-yl]butyl}-N-{[3-(trifluoromethoxy)phenyl]methyl}-1H-1,2,3-triazole-4-carboxamide] | 0.1 to 0.5 | 0.1 to 0.5
O=C(CN1CC(F)(F)C1)Nc1cn(CCCCn2cc(C(=O)NCc3cc(OC(F)(F)F)ccc3F)nn2)nn1 [Example 353, 1-(4-{4-[2-(3,3-difluoroazetidin-1-yl)acetamido]-1H-1,2,3-triazol-1-yl}butyl)-N-{[2-fluoro-5-(trifluoromethoxy)phenyl]methyl}-1H-1,2,3-triazole-4-carboxamide] | < 0.1 | 0.1 to 0.5
O=C(Cc1cccc(OC(F)(F)F)c1)Nc1nnc(CCCCn2cc(C(=O)NCC3CC3)nn2)s1 [Example 11, N-(cyclopropylmethyl)-1-[4-(5-{2-[3-(trifluoromethoxy)phenyl]acetamido}-1,3,4-thiadiazol-2-yl)butyl]-1H-1,2,3-triazole-4-carboxamide] | < 0.1 | 0.1 to 0.5
O=C(Cc1cccc(OC(F)(F)F)c1)Nc1ccc(CCCCc2nnc(C(=O)NCC3COC3)s2)nn1 [Example 33, N-(oxetan-3-ylmethyl)-5-[4-(6-{2-[3-(trifluoromethoxy)phenyl]acetamido}pyridazin-3-yl)butyl]-1,3,4-thiadiazole-2-carboxamide] | < 0.1 | < 0.1
O=C(CN1CC(F)(F)C1)Nc1cn(CCCCn2cc(C(=O)NCc3cc(Cl)ccc3F)nn2)nn1 [Example 352, N-[(5-chloro-2-fluorophenyl)methyl]-1-(4-{4-[2-(3,3-difluoroazetidin-1-yl)acetamido]-1H-1,2,3-triazol-1-yl}butyl)-1H-1,2,3-triazole-4-carboxamide] | 0.1 to 0.5 | 0.5 to 5
O=C(NCc1cc(C(F)(F)F)ccn1)c1cn(CCCCn2cc(C(=O)NCC3CCCCC3)nn2)nn1 [Example 90] | 0.1 to 0.5 | 0.1 to 0.5
O=C(CC1CCCC1)Nc1cn(CCCCn2cc(C(=O)NCc3cccnc3)nn2)nn1 [Example 309, 1-{4-[4-(2-cyclopentylacetamido)-1H-1,2,3-triazol-1-yl]butyl}-N-(pyridin-3-ylmethyl)-1H-1,2,3-triazole-4-carboxamide] | 0.1 to 0.5 | 0.1 to 0.5
O=C(NCc1cc(C(F)(F)F)ccn1)c1cn(CCCCn2cc(C(=O)NC[C@H]3CC4CCC3O4)nn2)nn1 (stereo partly drawn) [Example 102, 1-[4-(4-{[(2R)-7-oxabicyclo[2.2.1]heptan-2-ylmethyl]carbamoyl}-1H-1,2,3-triazol-1-yl)butyl]-N-{[4-(trifluoromethyl)pyridin-2-yl]methyl}-1H-1,2,3-triazole-4-carboxamide] | 0.5 to 5 | 0.5 to 5
CNC(=O)c1cn(CCC(F)Cn2cc(C(=O)NCc3ccc(C(F)(F)F)nc3)nn2)nn1 (stereo not drawn) [Example 186, 1-{3-fluoro-4-[4-({[6-(trifluoromethyl)pyridin-3-yl]methyl}carbamoyl)-1H-1,2,3-triazol-1-yl]butyl}-N-methyl-1H-1,2,3-triazole-4-carboxamide] | 0.1 to 0.5 | 0.5 to 5
Cc1ccnc(CNC(=O)c2cn(CCC(F)Cn3cc(C(=O)NCc4cc(C(F)(F)F)ccn4)nn3)nn2)c1 (stereo not drawn) [Example 159, 1-[2-fluoro-4-(4-{[(4-methylpyridin-2-yl)methyl]carbamoyl}-1H-1,2,3-triazol-1-yl)butyl]-N-{[4-(trifluoromethyl)pyridin-2-yl]methyl}-1H-1,2,3-triazole-4-carboxamide] | < 0.1 | 0.1 to 0.5
O=C(NCc1ccnnc1)c1cn(CCCCn2cc(C(=O)NCc3cccc(OC(F)(F)F)c3)nn2)nn1 [Example 127, 1-(4-{4-[(pyridazin-4-ylmethyl)carbamoyl]-1H-1,2,3-triazol-1-yl}butyl)-N-{[3-(trifluoromethoxy)phenyl]methyl}-1H-1,2,3-triazole-4-carboxamide] | 0.1 to 0.5 | 0.5 to 5
CC(C)(O)c1ccc(CNC(=O)c2cn(CCCCn3cc(C(=O)NCc4cccc(C5CC5)c4)nn3)nn2)cn1 [Example 123, N-[(3-cyclopropylphenyl)methyl]-1-{4-[4-({[6-(2-hydroxypropan-2-yl)pyridin-3-yl]methyl}carbamoyl)-1H-1,2,3-triazol-1-yl]butyl}-1H-1,2,3-triazole-4-carboxamide] | < 0.1 | 0.1 to 0.5
O=C(NCc1cc(C(F)(F)F)ccn1)c1cn(CC(F)CCc2nnc(C(=O)NCc3cc(OC(F)(F)F)ccc3F)s2)nn1 (stereo not drawn) [Example 449, 5-{3-fluoro-4-[4-({[4-(trifluoromethyl)pyridin-2-yl]methyl}carbamoyl)-1H-1,2,3-triazol-1-yl]butyl}-N-{[2-fluoro-5-(trifluoromethoxy)phenyl]methyl}-1,3,4-thiadiazole-2-carboxamide] | < 0.1 | < 0.1
O=C(NCc1cccc(CO)c1)c1cn(CCCCn2cc(C(=O)NCc3cc(C(F)(F)F)ccn3)nn2)nn1 [Example 113, 1-{4-[4-({[3-(hydroxymethyl)phenyl]methyl}carbamoyl)-1H-1,2,3-triazol-1-yl]butyl}-N-{[4-(trifluoromethyl)pyridin-2-yl]methyl}-1H-1,2,3-triazole-4-carboxamide] | < 0.1 | 0.5 to 5
O=C(NCc1cccc(OC(F)(F)F)c1)c1cn(CCCCn2cc(C(=O)NCc3cc(C4CC4)ccn3)nn2)nn1 [Example 106, N-[(4-cyclopropylpyridin-2-yl)methyl]-1-{4-[4-({[3-(trifluoromethoxy)phenyl]methyl}carbamoyl)-1H-1,2,3-triazol-1-yl]butyl}-1H-1,2,3-triazole-4-carboxamide] | < 0.1 | < 0.1
O=C(Cc1ccccn1)Nc1nnc(CC[C@@H](F)Cn2cc(C(=O)NCc3ccc(C(F)(F)F)cn3)nn2)s1 [Example 201, (R)-1-(2-fluoro-4-(5-(2-(pyridin-2-yl)acetamido)-1,3,4-thiadiazol-2-yl)butyl)-N-((5-(trifluoromethyl)pyridin-2-yl)methyl)-1H-1,2,3-triazole-4-carboxamide] | < 0.1 | 0.1 to 0.5
O=C(Cc1cccnc1)Nc1ccc(CCCCc2nnc(C(=O)NCc3ccccc3)s2)nn1 [Example 30, N-benzyl-5-(4-{6-[2-(pyridin-3-yl)acetamido]pyridazin-3-yl}butyl)-1,3,4-thiadiazole-2-carboxamide] | < 0.1 | < 0.1
O=C(Cc1cccnc1)Nc1ccc(CCCCn2cc(C(=O)NCc3cc(OC(F)(F)F)ccc3F)nn2)nn1 [Example 589, N-(2-fluoro-5-(trifluoromethoxy)benzyl)-1-(4-(6-(2-(pyridin-3-yl)acetamido)pyridazin-3-yl)butyl)-1H-1,2,3-triazole-4-carboxamide] | < 0.1 | < 0.1
O=C(NCc1cc(C(F)(F)F)ccn1)c1cn(CCCCn2cc(C(=O)N[C@H](CO)c3ccccc3)nn2)nn1 [Example 101, 1-[4-(4-{[(1S)-2-hydroxy-1-phenylethyl]carbamoyl}-1H-1,2,3-triazol-1-yl)butyl]-N-{[4-(trifluoromethyl)pyridin-2-yl]methyl}-1H-1,2,3-triazole-4-carboxamide] | 0.5 to 5 | 0.5 to 5
Cc1ccc(CNC(=O)c2cn(CCCCc3nnc(C(=O)NCC4CC4)s3)nn2)cn1 [Example 63, N-(cyclopropylmethyl)-5-[4-(4-{[(6-methylpyridin-3-yl)methyl]carbamoyl}-1H-1,2,3-triazol-1-yl)butyl]-1,3,4-thiadiazole-2-carboxamide] | 0.1 to 0.5 | 0.5 to 5
